Converted amounts (≈) assume the structure as drawn. Like-named read-outs stand apart in the source and are kept apart here.

Holding throughout (assay type): cell-based
One assay concerns Staph. aureus (FDA 209P). Nature of the assay: MIC, agar dilution, Staph. aureus. The settings on record: Staphylococcus aureus, FDA209P, 20 h, read-out: Minimum Inhibitory Concentration (MIC). The method, then: (§1) The compounds of this invention were tested for antibacterial activity according to the following procedure. Nutrient broth and nutrient agar were prepared according to the conventional procedure. […] was used as a vehicle. The stock solution was prepared at 100 μg/ml of the test material in the vehicle. Two-fold dilutions were made with the vehicle and then the diluted stock solution was added to a petri dish and solidified by chilling. Test organisms were grown in the nutrient broth for 20 hours at 37° C. The hardened surface was inoculated with a loopful of the test organism solution containing 1×10^6 cells per milliliter and incubated for 20 hours at 37° C. At the end of this period, growth of the organism was observed. […] The following Table 1 summarizes the activity of representative compounds as active antibacterial agents, and compares them with the prior art compounds and the reference drug Sulbenicillin.
For orientation: In agar dilution, organisms are placed on agar that contains the substance at set levels.

The next assay deals with E. coli (NIHJ). The experiment in a line: MIC, agar dilution, E. coli. The settings on record: Escherichia coli, 20 h, read-out: Minimum Inhibitory Concentration (MIC). The method, then:
as §1

The subject of assay [1] is Proteus vulgaris (IFO 3045). Nature of the assay: MIC, agar dilution, Proteus vulgaris. The settings on record: Proteus vulgaris, IFO3045, 20 h, read-out: Minimum Inhibitory Concentration (MIC). The method, then:
as §1

For assay [2], the system named is Proteus mirabilis (IFO 3849). The experiment in a line: MIC, agar dilution, Proteus mirabilis. The settings on record: Proteus mirabilis, IFO3849, 20 h, read-out: Minimum Inhibitory Concentration (MIC). The method, then:
as §1

For assay [3], the system named is Proteus morgani (IFO 3848). The experiment in a line: MIC, agar dilution, Proteus morgani. The settings on record: Morganella morganii, IFO3848, 20 h, read-out: Minimum Inhibitory Concentration (MIC). The method, then: as §1
The subject of assay [4] is Klebsiella pneumoniae (ATCC 25955). Nature of the assay: MIC, agar dilution, Klebsiella pneumoniae. The settings on record: Klebsiella pneumoniae, ATCC25955, 20 h, read-out: Minimum Inhibitory Concentration (MIC). The method, then: as §1
For assay [5], the system named is Salmonella typhimurium (TA 100). Nature of the assay: MIC, agar dilution, Salmonella typhimurium. The settings on record: Salmonella enterica, read-out: Minimum Inhibitory Concentration (MIC). The method, then:
as §1

In another assay the test system is Pseudomonas aeruginosa. The experiment in a line: MIC, agar dilution, Pseudomonas aeruginosa (strain not given). The settings on record: ATCC 15691 / ATCC 15692, 20 h, read-out: Minimum Inhibitory Concentration (MIC). The method, then: as §1
Where [6] appears, read: Salmonella typhimurium TA 100, ampicillin resistant strain, nutrient agar, 20 hours at 37° C.

With `CC1(C)S[C@@H]2[C@H](NC(=O)[C@H](NC(=O)[C@H]3CCCN3C(=O)OCc3ccccc3)c3ccccc3)C(=O)N2[C@H]1C(=O)O` [Compound 2, potassium 6-[D-2-(N-benzyloxycarbonyl-D-prolyl)amino-2-phenylacetamido]penicillanatemonohydrate], the MIC with Staph. aureus (FDA 209P) is 1.25 µg/mL.
With `CC1(C)S[C@@H]2[C@H](NC(=O)[C@H](NC(=O)[C@H]3CCCN3C(=O)OCc3ccccc3)c3ccc(O)cc3)C(=O)N2[C@H]1C(=O)O` [Compound 5], the MIC in the assay with Staph. aureus (FDA 209P) came to 2.5 µg/mL (≈ 4.19 µM).
Regarding `CC1(C)S[C@@H]2[C@H](NC(=O)[C@H](NC(=O)[C@@H]3CCCN3C(=O)OCc3ccccc3)c3ccc(O)cc3)C(=O)N2[C@H]1C(=O)O` [Compound 6], in the assay with Staph. aureus (FDA 209P), the MIC was 1.25 µg/mL (≈ 2.09 µM).
As to `CC1(C)S[C@@H]2[C@H](NC(=O)[C@H](NC(=O)[C@H]3CCCCN3)c3ccc(O)cc3)C(=O)N2[C@H]1C(=O)O` [Compound 7], the MIC in the assay on Staph. aureus (FDA 209P) is 1.25 µg/mL (≈ 2.62 µM); in the assay on E. coli (NIHJ), 25 µg/mL (≈ 52.5 µM); in assay [1], < 6.2 µg/mL; in assay [2], 9 µg/mL (≈ 18.9 µM); in assay [3], < 6.2 µg/mL; in assay [4] it was 9 µg/mL (≈ 18.9 µM).
Take `CC1(C)S[C@@H]2[C@H](NC(=O)[C@H](NC(=O)[C@H]3CCCCN3C(=O)OCc3ccccc3)c3ccc(O)cc3)C(=O)N2[C@H]1C(=O)O` [Compound 8]: in the assay on Staph. aureus (FDA 209P), the MIC was found to be 1.25 µg/mL (≈ 2.05 µM).
Same read-out and setting: next, `CC1(C)S[C@@H]2[C@H](NC(=O)[C@H](NC(=O)[C@H]3CCCCN3C(=O)OCc3ccccc3)c3ccccc3)C(=O)N2[C@H]1C(=O)O` [Compound 9]: 0.62 µg/mL (≈ 1.04 µM); `CC1(C)S[C@@H]2[C@H](NC(=O)[C@H](NC(=O)[C@H]3CCCCN3C(N)=O)c3ccccc3)C(=O)N2[C@H]1C(=O)O` [Compound 10]: 0.31 µg/mL (≈ 0.616 µM).
Consider `CC1(C)S[C@@H]2[C@H](NC(=O)[C@H](NC(=O)C3CCCCN3C(N)=O)c3ccccc3)C(=O)N2[C@H]1C(=O)O` (some centres unmarked) [Compound 11], for which the MIC in the assay with Staph. aureus (FDA 209P) amounted to 0.31 µg/mL (≈ 0.616 µM).
In the case of `CC1(C)S[C@@H]2[C@H](NC(=O)[C@H](NC(=O)[C@H]3CCCCN3)c3ccccc3)C(=O)N2[C@H]1C(=O)O` [Compound 12], the MIC in the assay on Staph. aureus (FDA 209P) worked out at 1.25 µg/mL (≈ 2.71 µM).
On to `CC1(C)S[C@@H]2[C@H](NC(=O)[C@H](NC(=O)C3CCCCN3)c3ccccc3)C(=O)N2[C@H]1C(=O)O` (some centres unmarked) [Compound 13], for which, in the assay on Staph. aureus (FDA 209P), the MIC turned out to be 3.75 µg/mL (≈ 8.14 µM).
Consider `CC1(C)S[C@@H]2[C@H](NC(=O)[C@H](NC(=O)C3NCc4ccccc43)c3ccccc3)C(=O)N2[C@H]1C(=O)O` (some centres unmarked) [Compound 14], for which the MIC in the assay with Staph. aureus (FDA 209P) was 0.31 µg/mL (≈ 0.627 µM).
In the case of `CC1(C)S[C@@H]2[C@H](NC(=O)[C@H](NC(=O)C3Cc4ccccc4CN3)c3ccccc3)C(=O)N2[C@H]1C(=O)O` (some centres unmarked) [Compound 16], the MIC with Staph. aureus (FDA 209P) came out at 0.46 µg/mL (≈ 0.904 µM).
For the compound `Cc1ccc(S(=O)(=O)N(C)[C@H](C)C(=O)N[C@@H](C(=O)N[C@@H]2C(=O)N3[C@@H]2SC(C)(C)[C@@H]3C(=O)O)c2ccccc2)cc1` [Compound 17], the MIC with Staph. aureus (FDA 209P) was 0.15 µg/mL (≈ 0.255 µM); with E. coli (NIHJ), 25 µg/mL (≈ 42.5 µM); in assay [1] it was 12.5 µg/mL (≈ 21.2 µM); in assay [2], 12.5 µg/mL (≈ 21.2 µM); in assay [3], 9 µg/mL (≈ 15.3 µM); in assay [5] (setting [6]) it was 12.5 µg/mL (≈ 21.2 µM). Besides, the MIC in the assay with Pseudomonas aeruginosa stood at 25 µg/mL (≈ 42.5 µM).
For `Cc1ccc(S(=O)(=O)N(C)[C@H](C)C(=O)N[C@@H](C(=O)N[C@@H]2C(=O)N3[C@@H]2SC(C)(C)[C@@H]3C(=O)O)c2ccc(O)cc2)cc1` [Compound 18], the MIC in the assay on Staph. aureus (FDA 209P) worked out at 0.31 µg/mL (≈ 0.513 µM).
For `Cc1ccc(S(=O)(=O)N(C)C(C)C(=O)N[C@@H](C(=O)N[C@@H]2C(=O)N3[C@@H]2SC(C)(C)[C@@H]3C(=O)O)c2ccccc2)cc1` (some centres unmarked) [Compound 19], the MIC in the assay with Staph. aureus (FDA 209P) is 0.15 µg/mL (≈ 0.255 µM); with E. coli (NIHJ) it was 25 µg/mL (≈ 42.5 µM); in assay [1] it was 12.5 µg/mL (≈ 21.2 µM); in assay [2], 12.5 µg/mL (≈ 21.2 µM); in assay [3] it was 12.5 µg/mL (≈ 21.2 µM); in assay [5] (TYPHIMURIUM, 20 h), 9 µg/mL (≈ 15.3 µM). The MIC with Pseudomonas aeruginosa stood at 37 µg/mL (≈ 62.8 µM).
Regarding `CN[C@H](C)C(=O)N[C@@H](C(=O)N[C@@H]1C(=O)N2[C@@H]1SC(C)(C)[C@@H]2C(=O)O)c1ccccc1` [Compound 20], the MIC in the assay with Staph. aureus (FDA 209P) was found to be 1.87 µg/mL (≈ 4.3 µM); in the assay with E. coli (NIHJ), 25 µg/mL (≈ 57.5 µM); in assay [1], 6.2 µg/mL (≈ 14.3 µM); in assay [2], 9.3 µg/mL (≈ 21.4 µM); in assay [3] it was 9.3 µg/mL (≈ 21.4 µM); in the assay with Pseudomonas aeruginosa, 37.5 µg/mL (≈ 86.3 µM).
Regarding `CN[C@H](C)C(=O)N[C@@H](C(=O)N[C@@H]1C(=O)N2[C@@H]1SC(C)(C)[C@@H]2C(=O)O)c1ccc(O)cc1` [Compound 21], the MIC with Staph. aureus (FDA 209P) stood at 1.87 µg/mL (≈ 4.15 µM); in the assay on E. coli (NIHJ), 12.3 µg/mL (≈ 27.3 µM); in assay [1] it was 4.7 µg/mL (≈ 10.4 µM); in assay [2], 6.2 µg/mL (≈ 13.8 µM); in assay [3], 3.1 µg/mL (≈ 6.88 µM).
For `Cc1ccc(S(=O)(=O)N(C)CC(=O)N[C@@H](C(=O)N[C@@H]2C(=O)N3[C@@H]2SC(C)(C)[C@@H]3C(=O)O)c2ccccc2)cc1` [Compound 22], the MIC with Staph. aureus (FDA 209P) turned out to be 0.31 µg/mL (≈ 0.539 µM); with E. coli (NIHJ), 25 µg/mL (≈ 43.5 µM); in assay [1] it was 25 µg/mL (≈ 43.5 µM); in assay [2] it was 23 µg/mL (≈ 40 µM); in assay [3], 12.5 µg/mL (≈ 21.8 µM); in the assay on Pseudomonas aeruginosa it was 25 µg/mL (≈ 43.5 µM).
Consider `Cc1ccc(S(=O)(=O)N(C)[C@H](CC(C)C)C(=O)N[C@@H](C(=O)N[C@@H]2C(=O)N3[C@@H]2SC(C)(C)[C@@H]3C(=O)O)c2ccccc2)cc1` [Compound 23], for which the MIC with Staph. aureus (FDA 209P) was determined as 0.62 µg/mL (≈ 0.983 µM).
As to `CC(C)C[C@H](C(=O)N[C@@H](C(=O)N[C@@H]1C(=O)N2[C@@H]1SC(C)(C)[C@@H]2C(=O)O)c1ccccc1)N(C)C(=O)OCc1ccccc1` [Compound 24], the MIC in the assay on Staph. aureus (FDA 209P) was 0.62 µg/mL (≈ 1.02 µM); in the assay with E. coli (NIHJ), 50 µg/mL (≈ 81.9 µM); in assay [1], 100 µg/mL (≈ 164 µM); in assay [2] it was 100 µg/mL (≈ 164 µM); in assay [3] it was 100 µg/mL (≈ 164 µM); in assay [5] (TYPHIMURIUM, 20 h), < 6.25 µg/mL. Further, in the assay on Pseudomonas aeruginosa, the MIC was 100 µg/mL (≈ 164 µM).
Regarding `CN(C(=O)OCc1ccccc1)[C@@H](C(=O)N[C@@H](C(=O)N[C@@H]1C(=O)N2[C@@H]1SC(C)(C)[C@@H]2C(=O)O)c1ccccc1)c1ccccc1` [Compound 25], the MIC in the assay with Staph. aureus (FDA 209P) amounted to 3.62 µg/mL (≈ 5.74 µM); in the assay on E. coli (NIHJ) it was 50 µg/mL (≈ 79.3 µM); in assay [1], 25 µg/mL (≈ 39.6 µM); in assay [2], 25 µg/mL (≈ 39.6 µM); in assay [3] it was 25 µg/mL (≈ 39.6 µM); in assay [5] (setting [6]), 12.5 µg/mL (≈ 19.8 µM).
Turning to `Cc1ccc(S(=O)(=O)N(C)[C@@H](C(=O)N[C@@H](C(=O)N[C@@H]2C(=O)N3[C@@H]2SC(C)(C)[C@@H]3C(=O)O)c2ccccc2)c2ccccc2)cc1` [Compound 26], the MIC with Staph. aureus (FDA 209P) amounted to 0.62 µg/mL (≈ 0.953 µM).
Consider `CN[C@H](CC(C)C)C(=O)N[C@@H](C(=O)N[C@@H]1C(=O)N2[C@@H]1SC(C)(C)[C@@H]2C(=O)O)c1ccccc1` [Compound 27], for which, in the assay on Staph. aureus (FDA 209P), the MIC is 0.62 µg/mL (≈ 1.3 µM).
As to `CC1(C)S[C@@H]2[C@H](NC(=O)[C@H](NC(=O)[C@H]3CCN3)c3ccccc3)C(=O)N2[C@H]1C(=O)O` [Compound 28], the MIC with Staph. aureus (FDA 209P) amounted to 3.75 µg/mL (≈ 8.67 µM); in the assay on E. coli (NIHJ) it was 50 µg/mL (≈ 116 µM); in assay [1] it was 6.2 µg/mL (≈ 14.3 µM); in assay [2] it was 6.2 µg/mL (≈ 14.3 µM); in assay [3] it was 12.5 µg/mL (≈ 28.9 µM); in the assay on Pseudomonas aeruginosa it was 25 µg/mL (≈ 57.8 µM).
Take `CC1(C)S[C@@H]2[C@H](NC(=O)[C@H](NC(=O)[C@H]3CCN3)c3ccc(O)cc3)C(=O)N2[C@H]1C(=O)O` [Compound 29]: the MIC was determined as 5 µg/mL (≈ 11.1 µM) with Staph. aureus (FDA 209P); 18.7 µg/mL (≈ 41.7 µM) with E. coli (NIHJ); 3.1 µg/mL (≈ 6.91 µM) in assay [1]; 3.1 µg/mL (≈ 6.91 µM) in assay [2]; 3.1 µg/mL (≈ 6.91 µM) in assay [3]; 37.5 µg/mL (≈ 83.6 µM) in the assay with Pseudomonas aeruginosa.
